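Assay format: 96-well plates, 48-hour exposure. Here, GI50 denotes the concentration required for 50% inhibition of growth.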 The source made the active and inactive calls. Cut-off read from the data, not from the text of the source: active = GI50 up to about 1.1 µM and inactive = higher.
How the values were obtained:
Assay in all cases: DTP human tumour cell line panel, 48 h
SK-MEL-5 = test system: SK-MEL-5
SK-MEL-28 = test system: SK-MEL-28
SK-OV-3 = test system: SK-OV-3
MDA-N = test system: MDA-N
KM12 = test system: KM12
M14 = test system: M14
U-251 = test system: U-251
HCC 2998 = test system: HCC 2998
NCI-H460 = test system: NCI-H460
MOLT-4 = test system: MOLT-4
SK-MEL-2 = test system: SK-MEL-2
UACC-62 = test system: UACC-62
OVCAR-4 = test system: OVCAR-4
A498 = test system: A498
CCRF-CEM = test system: CCRF-CEM
EKVX = test system: EKVX
NCI/ADR-RES = test system: NCI/ADR-RES
RXF 393 = test system: RXF 393

SMILES | GI50 (SK-MEL-5) | GI50 (SK-MEL-28) | GI50 (SK-OV-3) | GI50 (MDA-N) | GI50 (KM12) | GI50 (M14) | GI50 (U-251) | GI50 (HCC 2998) | GI50 (NCI-H460) | GI50 (MOLT-4) | GI50 (SK-MEL-2) | GI50 (UACC-62) | GI50 (OVCAR-4) | GI50 (A498) | GI50 (CCRF-CEM) | GI50 (EKVX) | GI50 (NCI/ADR-RES) | GI50 (RXF 393)
CC(C)(C)[Si](C)(C)OCC1OC(n2ccc(=O)[nH]c2=O)C(O[Si](C)(C)C(C)(C)C)[C@@]12O[C@H]2C(N)=O (stereo partly drawn) | 4.06 µM (inactive) | 17.6 µM (inactive) | 19 µM (inactive) | 5.37 µM (inactive) | 7.67 µM (inactive) | 11.3 µM (inactive) | 4.28 µM (inactive) | 11.9 µM (inactive) | 5.28 µM (inactive) | 6.53 µM (inactive) | 16.3 µM (inactive) | 18.7 µM (inactive) | 18.5 µM (inactive) | > 10 µM (inactive) | > 10 µM (inactive) | 16.2 µM (inactive) | 8.57 µM (inactive) | 
COC(=O)CCC(NC(=S)N/N=C(\C)c1ccccn1)C(=O)OC (stereo not drawn) | 40.5 µM (inactive) | 66.7 µM (inactive) | > 100 µM (inactive) |  | 91.6 µM (inactive) | 31.6 µM (inactive) | 53.2 µM (inactive) | > 100 µM (inactive) | 65.8 µM (inactive) | 24.2 µM (inactive) | > 100 µM (inactive) | 34.8 µM (inactive) | > 100 µM (inactive) | > 100 µM (inactive) | 29.6 µM (inactive) | 43.6 µM (inactive) |  | 35 µM (inactive)
C/C(=C\c1ccccc1)C(O)S(=O)(=O)O (stereo not drawn) | > 100 µM (inactive) | > 100 µM (inactive) | > 100 µM (inactive) |  | > 100 µM (inactive) | > 100 µM (inactive) | > 100 µM (inactive) | > 100 µM (inactive) | > 100 µM (inactive) | > 100 µM (inactive) | > 100 µM (inactive) | > 100 µM (inactive) | > 100 µM (inactive) | > 100 µM (inactive) | > 100 µM (inactive) | > 100 µM (inactive) |  | > 100 µM (inactive)
COc1ccc(OC(=O)CC2Cc3cc(OC)c(OC)c(OC)c3-c3ccc(SC)c(=O)cc32)cc1 (stereo not drawn) | 0.378 µM (active) | 0.698 µM (active) | 0.0277 µM (active) |  | 0.107 µM (active) | 0.34 µM (active) | 0.224 µM (active) | 0.0568 µM (active) | 0.245 µM (active) | 0.387 µM (active) | 2.14 µM (inactive) | 0.232 µM (active) | 11.7 µM (inactive) | 0.0332 µM (active) | 0.184 µM (active) | > 28.7 µM (inactive) |  | 0.115 µM (active)
CCOc1ccccc1NC(=O)C(C#N)C1=C(Cl)C(=O)c2ccccc2C1=O (stereo not drawn) | 1.5 µM (inactive) | 2.03 µM (inactive) | 26.2 µM (inactive) |  | 1.72 µM (inactive) | 1.68 µM (inactive) | 1.71 µM (inactive) | 1.75 µM (inactive) | 1.79 µM (inactive) | 1.17 µM (inactive) | 1.55 µM (inactive) | 1.83 µM (inactive) | 1.94 µM (inactive) | 19.8 µM (inactive) | 0.867 µM (active) | 1.5 µM (inactive) |  | 1.97 µM (inactive)
CCOc1ccccc1NC(=O)C(=O)c1c(O)c2ccc(O)cc2oc1=O | > 100 µM (inactive) | > 100 µM (inactive) | > 100 µM (inactive) |  | > 100 µM (inactive) | > 100 µM (inactive) | > 100 µM (inactive) | > 100 µM (inactive) | > 100 µM (inactive) | > 100 µM (inactive) | > 100 µM (inactive) | > 100 µM (inactive) | > 100 µM (inactive) | > 100 µM (inactive) | > 100 µM (inactive) | > 100 µM (inactive) |  | > 100 µM (inactive)
COc1c(CC(C)=O)ccc2c1C(=O)c1ccc(C=O)c(OC(C)=O)c1C2=O | 14.1 µM (inactive) | 11 µM (inactive) | 55.5 µM (inactive) |  | 14.6 µM (inactive) | 12 µM (inactive) | 13.9 µM (inactive) | 11.5 µM (inactive) | 23.3 µM (inactive) | 11.4 µM (inactive) | 15.2 µM (inactive) | 4.55 µM (inactive) | 14.6 µM (inactive) | 27.3 µM (inactive) | 3.23 µM (inactive) | 23.3 µM (inactive) |  | 4.09 µM (inactive)

From ChEMBL document CHEMBL1201862, “PubChem BioAssay data set” (2004)
